Assays:
[1] = Appearance of 0.3 wt % syrup concentrates diluted from super concentrates; type: physicochemical; settings: 0.3 wt % (5.5+1 syrup concentration) in water, mixed at room temperature for 90 hours
Experimental: The final syrup concentrations are provided below:
The 2 wt % super concentrates were then diluted to a 5.5+1 syrup concentration (0.3 wt %) with water and mixed at room temperature for 90 hours.

[2] = Solubility in mock syrup system (0.3%); type: physicochemical

Observations [1]	Solubility in Syrup System (0.3%) ([2]; 500 ppm in citric buffer)	Solubility in Syrup System (0.3%) ([2]; 512 ppm in citric buffer)	SMILES
cloudy			C=C1C[C@@]23CC[C@H]4[C@@](C)(CCC[C@@]4(C)C(=O)O[C@@H]4O[C@H](CO)[C@@H](O)[C@H](O[C@@H]5O[C@H](CO)[C@@H](O)[C@H](O)[C@H]5O)[C@H]4O[C@@H]4O[C@@H](C)[C@H](O)[C@@H](O)[C@H]4O)[C@@H]2CC[C@]1(O[C@@H]1O[C@H](CO)[C@@H](O)[C@H](O[C@@H]2O[C@H](CO)[C@@H](O)[C@H](O)[C@H]2O)[C@H]1O[C@@H]1O[C@H](CO)[C@@H](O)[C@H](O)[C@H]1O)C3 [Reb N]
	No	No	C=C1C[C@@]23CCC4[C@](C)(C(=O)OC5OC(CO)C(O)C(OC6OC(CO)C(O)C(O)C6O)C5OC5OC(CO)C(O)C(O)C5O)CCC[C@@]4(C)[C@@H]2CCC1(OC1OC(CO)C(O)C(OC2OC(CO)C(O)C(O)C2O)C1OC1OC(CO)C(O)C(O)C1O)C3 (stereo partly drawn) [Reb-M, 13-[(2-O-β-D-glucopyranosyl-3-O-β-D-glucopyranosyl-β-D-glucopyranosyl)oxy] ent kaur-16-en-19-oic acid-[(2-O-β-D-glucopyranosyl-3-O-β-D-glucopyranosyl-β-D-glucopyranosyl) ester]]

Reference: patent US20240407413A1, “Concentrates Compromising Stevia Blends and Uses” (The Coca-Cola Company, priority 2018, published 2024)
